From patent US20240376048A1 (Celgene Corporation, priority 2021, published 2024)
pEC50: −log10 of the molar value.

Molecular target: S1P5 (Homo sapiens, UniProt Q9H228)
Assay: [35S]-GTPγS binding assay (S1P5 agonism), CHO cell membranes
Assay type: biochemical
Settings: membranes of CHO cells expressing recombinant S1P5 receptors, measure of S1P5 agonism
Description: CHO cells expressing recombinant S1P5 receptors were cultured in 500 cm^2 culture trays and, once confluent, rinsed and detached with cell-lifting buffer (10 mM HEPES, 154 mM NaCl, 6.85 mM EDTA, pH 7.4). Cells were then pelleted by centrifugation, resuspended, and homogenized in membrane preparation buffer (10 mM HEPES and 10 mM EDTA, pH 7.4) using a Polytron PT 1200E homogenizer (Kinematica, Luzern, Switzerland). Cellular proteins were pelleted by centrifugation at 48,000×g at 4° C. for 30 minutes. The resulting supernatant was discarded, and the pellet was re-suspended again in membrane preparation buffer, homogenized for a second time, and then centrifuged again as described above. The final cellular protein pellet was suspended in ice cold resuspension buffer (10 mM HEPES and 0.1 mM EDTA, pH 7.4), divided into aliquots, and stored at −80° C. until use.
Functional binding assays for [^35S]-GTPγS were performed in 96-well non-binding surface plates with a final volume of 200 μL. The test compounds were serially diluted in DMSO and added to assay plates using a Tecan D300E digital printer with a total volume of […]. The control sphingosine-1-phosphate (S1P) was prepared separately by preparing a 400 μM stock solution from a 100 nmol pellet of S1P in 10 mM Na2CO3 with 2% […]. The serial dilution of S1P was done using complete assay buffer (20 mM HEPES, 10 mM MgCl2, 100 mM NaCl, 1 mM EDTA, 0.1% fatty acid free bovine serum albumin (BSA), and 30 μg/mL saponin, pH 7.4) and transferred to wells already containing 0.4 μL DMSO. All the wells were then loaded to a total volume of 40 μL of complete assay buffer, except the non-specific binding (NSB) wells. For NSB wells, 40 μL/well of 50 μM GTPγS (Sigma Aldrich, cat #G8634, St. Louis, MO) was added to wells containing 0.4 μL of DMSO. The assay was started by the addition of 120 μL/well of CHO-SlP receptor membrane solution containing 40 μg/mL of membrane protein, 16.67 μM guanosine diphosphate (GDP; Sigma Aldrich, cat #G7127, St. Louis, MO), and 2.5 mg/mL of WGA PVT SPA beads in complete buffer. Assay plates were then sealed and incubated at room temperature with gentle agitation for 30 minutes. Next, 40 µL/well of 1 nM of [^35S]-GTPγS (PerkinElmer, cat #NEG030X25OUC, Waltham, MA) in basic assay buffer (20 mM HEPES, 10 mM MgCl2, 100 mM NaCl, and 1 mM EDTA, pH7.4) was added to the assay plates to yield a final concentration of 200 pM and the plates were further incubated for 40 minutes at room temperature with gentle agitation. The assay was terminated by centrifugation of the plates at 1000 rpm for 3 minutes using an Eppendorf 5810R centrifuge (Eppendorf, Hamburg, Germany) and G protein bound radioactivity was quantitated using a MicroBeta2 microplate scintillation counter (PerkinElmer, Waltham, MA). As G protein bound radioactivity directly correlates to receptor activation and coupling to the G protein, this assay is a measure of S1P5 agonism.

S1P5, sequence (Q9H228 whole entry, species assumed): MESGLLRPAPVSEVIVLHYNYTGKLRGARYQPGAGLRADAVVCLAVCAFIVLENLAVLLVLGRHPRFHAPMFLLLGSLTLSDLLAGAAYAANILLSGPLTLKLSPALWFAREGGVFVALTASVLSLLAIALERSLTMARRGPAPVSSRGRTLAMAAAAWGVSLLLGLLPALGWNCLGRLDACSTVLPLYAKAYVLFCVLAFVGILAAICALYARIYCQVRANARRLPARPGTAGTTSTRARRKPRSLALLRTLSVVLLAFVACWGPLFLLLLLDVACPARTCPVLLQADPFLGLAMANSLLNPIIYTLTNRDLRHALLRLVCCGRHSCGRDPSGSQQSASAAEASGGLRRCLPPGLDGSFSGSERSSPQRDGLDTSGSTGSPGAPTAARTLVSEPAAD

pEC50 | Structure (SMILES)
7.00 to 8.00 | CC1CC(C(=O)O)CCN1C1CCc2cc(OCc3c(Cl)cccc3Cl)ccc21 (stereo not shown) [Compound 30, 1-(5-((2,6-dichlorobenzyl)oxy)-2,3-dihydro-1H-inden-1-yl)-2-methylpiperidine-4-carboxylic acid]
7.00 to 8.00 | CC1CC(C(=O)O)CC(C)N1C1CCc2cc(OCc3c(Cl)cccc3Cl)ccc21 (stereo not shown) [Compound 31, 1-(5-((2,6-dichlorobenzyl)oxy)-2,3-dihydro-1H-inden-1-yl)-2,6-dimethylpiperidine-4-carboxylic acid]
8.00 to 9.00 | O=C(O)C1CCN(C2CCc3cc(OCc4c(Cl)cccc4Cl)cc(F)c32)CC1 (stereo not shown) [Compound 32, 1-(5-((2,6-dichlorobenzyl)oxy)-7-fluoro-2,3-dihydro-1H-inden-1-yl)piperidine-4-carboxylic acid]
8.00 to 9.00 | O=C(O)C1CCN(C2CCc3cc(OCc4c(Cl)cccc4Cl)c(F)cc32)CC1 (stereo not shown) [Compound 33, 1-(5-((2,6-dichlorobenzyl)oxy)-6-fluoro-2,3-dihydro-1H-inden-1-yl)piperidine-4-carboxylic acid]
≥ 9.00 | O=C(O)C1CCN(C2CCc3c2ccc(OCc2c(Cl)cccc2Cl)c3F)CC1 (stereo not shown) [Compound 34, 1-(5-((2,6-dichlorobenzyl)oxy)-4-fluoro-2,3-dihydro-1H-inden-1-yl)piperidine-4-carboxylic acid]
≥ 9.00 | Cc1cc(OCc2c(Cl)cccc2Cl)cc2c1C(N1CCC(C(=O)O)CC1)CC2 (stereo not shown) [Compound 35, 1-(5-((2,6-dichlorobenzyl)oxy)-7-methyl-2,3-dihydro-1H-inden-1-yl)piperidine-4-carboxylic acid]
≥ 9.00 | Cc1c(OCc2c(Cl)cccc2Cl)ccc2c1CCC2N1CCC(C(=O)O)CC1 (stereo not shown) [Compound 36, 1-(5-((2,6-dichlorobenzyl)oxy)-4-methyl-2,3-dihydro-1H-inden-1-yl)piperidine-4-carboxylic acid]
8.00 to 9.00 | Cc1cc2c(cc1OCc1c(Cl)cccc1Cl)CCC2N1CCC(C(=O)O)CC1 (stereo not shown) [Compound 37, 1-(5-((2,6-dichlorobenzyl)oxy)-6-methyl-2,3-dihydro-1H-inden-1-yl)piperidine-4-carboxylic acid]
8.00 to 9.00 | CC1CC(N2CCC(C(=O)O)CC2)c2ccc(OCc3c(Cl)cccc3Cl)cc21 (stereo not shown) [Compound 38, 1-(5-((2,6-dichlorobenzyl)oxy)-3-methyl-2,3-dihydro-1H-inden-1-yl)piperidine-4-carboxylic acid]
7.00 to 8.00 | CC1(C)CC(N2CCC(C(=O)O)CC2)c2ccc(OCc3c(Cl)cccc3Cl)cc21 (stereo not shown) [Compound 39]
